# Measured values reported in US4123534A, “Adenine derivatives and hypolipidemic composition thereof” (Wulfing; Johann W., priority 1976, dated 1978).
# Read-outs that look alike come from different tables or passages of the source.
# What was measured:
# [1] = different animal species and man; cited from earlier work
# [2] = fall in serum triglyceride levels in male rats, 1 mg/kg per os; type: in vivo; details: 3-methylpyrazole-5-carboxylic acid addition salts
# Procedure: When administered to male rats the 3-methylpyrazole-5-carboxylic acid addition salts of the compound of the formula (IV) wherein R2 is respectively a methyl, ethyl, isopropyl and n-butyl at a dose of 1 mg/kg per os produced a fall in serum triglyceride levels of about 23%, 34%, 34% and 56% respectively.
# [3] = acute toxicity (LD50) in mice; type: in vivo; details: for LD50: mouse, in vivo, mice
# [4] = oral test in normal rats starved for 17 hours: serum lipid lowering; type: in vivo; details: rats starved 17 hours
# Procedure: Similarly, a reduction in serum free fatty acid concentration of about 40-50% was produced over the dose range 0.15 mg/kg to 5 mg/kg.
structure (smiles),measurement,setting,value
Nc1ncnc2c1ncn2C[C@@H](O)[C@@H](O)C(=O)O [lentinacin],"lowering of lipid components of plasma lipoproteins (cholesterol, triglycerides and phospholipids)",[1],lowers all lipid components of the plasma - lipoproteins
CC(C)N(CCO)CC(O)Cn1cnc2c(N)ncnc21 (centres unmarked),fall in serum triglyceride levels,[2],~34%
CCN(CCO)CC(O)Cn1cnc2c(N)ncnc21 (centres unmarked),fall in serum triglyceride levels,[2],~34%
"CN(CCO)CC(O)Cn1cnc2c(N)ncnc21 (stereo not drawn) [Example 1 (9-isomer), 6-Amino-9-[2-hydroxy-3-(N-methyl-N-2-hydroxyethyl)aminopropyl]purine]",acute toxicity,[3]; in words,low acute toxicity
same,LD50,"[3]; iv, intra-venous, read-out: LD50 by intra-venous administration",~350 mg/kg
same,LD50,"[3]; oral, read-out: LD50 by oral administration",~1000 mg/kg
CCCCN(CCO)CC(O)Cn1cnc2c(N)ncnc21 (centres unmarked),fall in serum triglyceride levels,[2],~56%
"CN(CCO)CC(O)Cn1cnc2c(N)ncnc21 (centres unmarked) [Example 2, 6-Amino-9-[2-hydroxy-3-(N-methyl-N-2-hydroxyethyl)aminopropyl]purine3-methylpyrazole-5-carboxylate]",reduction in serum triglyceride levels,"[4]; 1 hour post administration, dose range 0.25 mg/kg to 25 mg/kg",30-40%
same,reduction in serum cholesterol levels,[4]; dose of 100 mg/kg,about 30%
same,reduction in serum free fatty acid concentration,[4]; dose range 0.15 mg/kg to 5 mg/kg,40-50%
same,fall in serum triglyceride levels,[2],about 23%
